Assay results from patent US20230310540A1, “PEPTIDE COMPOSITIONS AND METHODS OF USE THEREOF” (priority 2020, published 2023).
Values after ≈ are worked out from the molar mass of the structure shown. Like-named read-outs stand apart in the source and are kept apart here. Bridge positions count the residues as written; N and C are the ends. Square brackets hold non-standard residues; d marks the D form. Peptide text beside a SMILES is read from it.

Assays:
Assay type in all cases: cell-based
K. pneumoniae = conditions: presence of 1×10^9 human RBC/ml; Table 3
Method: (§1) Peptide variants of D-CONGA (SEQ ID NO: 1) were tested for activity against E. coli, K. pneumoniae, and S. aureus. Minimum Inhibitory Concentrations (MIC) were measured in 96-well plates by broth dilution. Peptides were serially diluted in buffer or in buffer containing 1×10^9 human RBC/ml. Following 1 hr. incubation, bacteria in growth media were added and the plates were incubated overnight at 37° C. Sterilized, wells were identified to determine MIC. Hemolysis was measured by incubating 1×10^8 human RBCs with serially diluted peptide for 30 minutes followed by centrifugation of the cells and measurements of the released hemoglobin in the supernatant by absorbance at 410 nm. The value for 100% hemolysis was established by treatment with the detergent Triton-X100. Toxicity was measured by incubating serially diluted peptide with WI38 human fibroblast cells in the presence of SYTOX Green, a DNA binding dye that reports on cell death by membrane permeabilization. The peptide concentration that gives 50% cytotoxicity by relative SYTOX Green fluorescence, is denoted EC50.
(§2) Antimicrobial peptides and conventional antibiotics were prepared at 5-times the final concentration needed in 0.025% acetic acid. The antibiotics were serially diluted by a factor of 2:3 horizontally across 96-well plates from Corning, 25 μL per well. One column was reserved for controls. For the assays performed in the presence of RBC, type O+ human RBCs at 0 or 2.5×10^9 cells/mL were added in 50 μL aliquots to all wells. Following a 30-minute incubation, 50 μL of TSB, inoculated with 5×10^5 CFU/mL, was added to all wells, and plates were incubated overnight at 37° C. Following overnight incubation at 37° C., the OD600 was measured (values of less than 0.1 were considered sterilized). To assess bacterial growth in the assays with RBC, the OD600 was measured after a second day inoculation with 10 μL of solution from the original plate added to 100 μL of sterile TSB followed by overnight incubation.
(§3) MIC values were reported in μM peptide against gram-negative E. coli (EC), P. aeruginosa (PA), and gram-positive S. aureus (SA). The two columns under each organism are for assays performed in the absence (−) and presence (+) of 1×10^9 human RBC/ml. “>30” means that sterilization was not observed at 30 μM, the highest concentration tested. The column marked “hemolysis” is the fractional hemolysis of 1×10^8 human RBC/ml at 100 μM peptide determined from measurements of serially diluted peptide, starting from 100 μM. The column marked “EC 50” contains the concentration of peptide that kills 50% of WI-38 human fibroblast cells assayed by entry of SYTOX™ Green DNA binding dye.

S. aureus = conditions: for MIC in Broth Dilution, S. Aureus, RBC −: absence of RBC
Method: as §1, §2, §3

E. coli = conditions: for MIC in Broth Dilution, E. coli, RBC −: absence of RBC; for MIC in Broth Dilution, E. coli, RBC − / MIC in Broth Dilution, E. coli, RBC +: Table 3; for MIC, E. coli, No RBC / MIC, E. coli, 10^9 cells/ml RBC: Table 2; for MIC in Broth Dilution, E. coli, RBC +: presence of 1×10^9 human RBC/ml; for MIC, E. coli, 10^9 cells/ml RBC: with 10^9 human RBC/ml
Method: as §1, §2, §3

human RBCs = assay: Hemolysis of human RBCs
Method: as §1
Peptide was serially diluted in PBS starting at a concentration of 100 μM. The final volume of peptide in each well was 50 μL. To each well, 50 μL of RBCs in PBS at 2×10^8 cells/mL was added. As a positive lysis control, 1% triton was used. The mixtures were incubated at 37° C. for 1 hour, after which they were centrifuged at 1000 g for 5 minutes. After centrifugation, 10 μL of supernatant was transferred to 90 μL of DI H2O in a fresh 96-well plate. The absorbance of released hemoglobin at 410 nm was recorded and the fractional hemolysis was calculated based on the 100% and 0% lysis controls.
as §3

[1] = fractional hemolysis of 1×10^8 human RBC/ml at 100 μM peptide, Table 3
[2] = fractional hemolysis of human RBCs at 100 μM peptide, Table 2

SMILES	MIC in Broth Dilution, K. Pneumoniae, RBC + (K. pneumoniae)	MIC in Broth Dilution, S. Aureus, RBC − (S. aureus; Table 3)	MIC, S. aureus, No RBC (S. aureus; Table 2)	MIC in Broth Dilution, E. coli, RBC − (E. coli)	MIC, E. coli, No RBC (E. coli)	MIC in Broth Dilution, E. coli, RBC + (E. coli)	MIC, E. coli, 10^9 cells/ml RBC (E. coli)	Hemolysis at 100 μM (human RBCs; [1])	Hemolysis at 100 μM (human RBCs; [2])	MIC in Broth Dilution, S. Aureus, RBC + (S. aureus; presence of 1×10^9 human RBC/ml, Table 3)	MIC, S. aureus, 10^9 cells/ml RBC (S. aureus; with 10^9 human RBC/ml, Table 2)	Hemolysis at 100 μM (human RBCs)
CC(C)C[C@@H]1NC(=O)[C@H](CCCNC(=N)N)NC(=O)[C@H](CCCNC(=N)N)NC(=O)[C@H](C)NC(=O)[C@H](Cc2c[nH]c3ccccc23)NC(=O)[C@H](CCCNC(=N)N)NC(=O)[C@H](CCCNC(=N)N)NC(=O)CC[C@@H](C(N)=O)NC(=O)[C@H](CCCNC(=N)N)NC(=O)[C@H](CCCNC(=N)N)NC(=O)[C@H](Cc2ccccc2)NC(=O)[C@H](C)NC(=O)[C@H](Cc2ccccc2)NC(=O)[C@H](C)NC1=O [CYCLIZED-L-CONGA-E] (RRWARRLAFAFRRE-NH2; lactam N-14)	>30 µM	>30 µM	30 µM (≈ 56.2 µg/mL)	22.9 µM (≈ 42.9 µg/mL)	24 µM (≈ 44.9 µg/mL)	>30 µM	30 μM	0.03	0.03	–	–	–
CC(C)C[C@@H]1NC(=O)[C@H](CCCNC(=N)N)NC(=O)[C@H](CCCNC(=N)N)NC(=O)[C@H](C)NC(=O)[C@H](Cc2c[nH]c3ccccc23)NC(=O)[C@H](CCCNC(=N)N)NC(=O)[C@H](CCCNC(=N)N)NC(=O)[C@H](CCCNC(=N)N)NC(=O)[C@H](CCCNC(=N)N)NC(=O)[C@H](Cc2ccccc2)NC(=O)[C@H](C)NC(=O)[C@H](Cc2ccccc2)NC(=O)[C@H](C)NC1=O [CYCLIZED-L-CONGA-OH] (cyclo(RRWARRLAFAFRR))	6 µM	20 µM (≈ 34.9 µg/mL)	20 µM (≈ 34.9 µg/mL)	5.9 µM (≈ 10.3 µg/mL)	5.9 µM (≈ 10.3 µg/mL)	13.3 µM	13.3 μM	0.7	0.7	–	–	–
CC(C)C[C@H](NC(=O)[C@H](CCCNC(=N)N)NC(=O)[C@H](CCCNC(=N)N)NC(=O)[C@H](C)NC(=O)[C@H](Cc1c[nH]c2ccccc12)NC(=O)[C@H](CCCNC(=N)N)NC(=O)[C@H](N)CCCNC(=N)N)C(=O)N[C@@H](C)C(=O)N[C@@H](Cc1ccccc1)C(=O)N[C@@H](C)C(=O)N[C@@H](Cc1ccccc1)C(=O)N[C@@H](CCCNC(=N)N)C(=O)N[C@H](CCCNC(=N)N)C(N)=O [L-CONGA-D(R1, R13)] (H-[dR]RWARRLAFAFR[dR]-NH2)	–	>30 µM	30 µM (≈ 52.8 µg/mL)	20 µM (≈ 35.2 µg/mL)	20 µM (≈ 35.2 µg/mL)	26.2 µM	26.2 μM	–	–	>30 µM	30 μM	0.01
